Experimental data from patent US8729091B2, “4-phenoxy-nicotinamide or 4-phenoxy-pyrimidine-5-carboxamide compounds” (Hoffmann-La Roche Inc., priority 2010, dated 2014).

Target: T1, human GPBAR1 receptor (Homo sapiens, UniProt Q8TDU6)
T1 construct: expressed in transfected cells
T1 sequence (Q8TDU6 1-330): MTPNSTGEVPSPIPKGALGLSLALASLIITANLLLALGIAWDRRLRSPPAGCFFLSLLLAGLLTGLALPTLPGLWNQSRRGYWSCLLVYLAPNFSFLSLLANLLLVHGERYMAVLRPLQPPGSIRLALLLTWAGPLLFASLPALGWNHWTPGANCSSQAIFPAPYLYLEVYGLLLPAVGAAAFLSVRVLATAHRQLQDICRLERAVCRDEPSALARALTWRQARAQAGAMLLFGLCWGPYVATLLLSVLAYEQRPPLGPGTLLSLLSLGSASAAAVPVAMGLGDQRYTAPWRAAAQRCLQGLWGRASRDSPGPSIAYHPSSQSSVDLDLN
Assay: functional cAMP assay in CHO-dhfr(minus) cells expressing human GPBAR1 receptors
Assay type: cell-based
Settings: cAMP increase (TR-FRET) in CHO-dhfr(minus) cells expressing human GPBAR1; compounds incubated 30 min at 30° C.
Method: The final clone was verified by DNA sequence analysis. The plasmid was transfected into CHO cells deficient in dihydrofolate reductase activity (CHO-dhfr−) using Lipofectamine plus (Invitrogen). Clones were isolated in limited dilution conditions and identified by activities in the cAMP assay using lithocholic acid as agonist.
The growth medium was exchanged with Krebs Ringer Bicarbonate buffer with 1 mM IBMX and incubated at 30° C. for 30 min. Compounds were added to a final assay volume of 100 μl and incubated for 30 min at 30° C. […] The time-resolved energy transfer is measured by a TRF reader (Evotec Technologies GmbH, Hamburg Germany), equipped with a ND:YAG laser as excitation source.
EC50 values were determined using Activity Base analysis (ID Business Solution, Limited). […] Specificity for GPBAR1 was tested in non-transfected CHO cells in the same assay as above.

Row | Compound | EC50
1 | O=C(c1cnccc1Oc1cc(Cl)ccc1Cl)N1CCCc2cc(F)c(F)cc21 [Example 2, [4-(2,5-Dichloro-phenoxy)-pyridin-3-yl]-(6,7-difluoro-3,4-dihydro-2H-quinolin-1-yl)-methanone] | 100 nM
2 | O=C(c1cnccc1Oc1cc(Cl)ccc1Cl)N1CCNc2ccccc21 [Example 3, [4-(2,5-Dichloro-phenoxy)-pyridin-3-yl]-(3,4-dihydro-2H-quinoxalin-1-yl)-methanone] | 100 nM
3 | CN1CCN(C(=O)c2cnccc2Oc2cc(Cl)ccc2Cl)c2ccccc21 [Example 4, [4-(2,5-Dichloro-phenoxy)-pyridin-3-yl]-(4-methyl-3,4-dihydro-2H-quinoxalin-1-yl)-methanone] | 3 nM
4 | O=C(c1cnccc1Oc1cc(Cl)ccc1Cl)N1CCN(CC2CC2)c2ccccc21 [Example 6, (4-Cyclopropylmethyl-3,4-dihydro-2H-quinoxalin-1-yl)-[4-(2,5-dichloro-phenoxy)-pyridin-3-yl]-methanone] | 3 nM
5 | O=C(c1c[n+]([O-])ccc1Oc1cc(Cl)ccc1Cl)N1CCCc2ccccc21 [Example 10, [4-(2,5-Dichloro-phenoxy)-1-oxy-pyridin-3-yl]-(3,4-dihydro-2H-quinolin-1-yl)-methanone] | 700 nM
6 | O=C(c1cnccc1Oc1cc(Cl)ccc1Cl)N1CCN(C2CC2)c2cc(Cl)ccc21 [Example 11, (6-Chloro-4-cyclopropyl-3,4-dihydro-2H-quinoxalin-1-yl)-[4-(2,5-dichloro-phenoxy)-pyridin-3-yl]-methanone] | 10 nM
7 | COc1ccc(F)cc1N(C)C(=O)c1cnccc1Oc1cc(Cl)ccc1Cl [Example 12, 4-(2,5-Dichloro-phenoxy)-N-(5-fluoro-2-methoxy-phenyl)-N-methyl-nicotinamide] | 100 nM
8 | COc1cc(F)c(F)cc1N(C)C(=O)c1cnccc1Oc1cc(Cl)ccc1Cl [Example 19, 4-(2,5-Dichloro-phenoxy)-N-(4,5-difluoro-2-methoxy-phenyl)-N-methyl-nicotinamide] | 100 nM
9 | CN(C)c1ccc(Cl)cc1N(C)C(=O)c1cnccc1Oc1cc(Cl)ccc1Cl [Example 20, N-(5-Chloro-2-dimethylamino-phenyl)-4-(2,5-dichloro-phenoxy)-N-methyl-nicotinamide] | 400 nM
10 | CNc1cc(F)c(F)cc1N(C)C(=O)c1cnccc1Oc1cc(Cl)ccc1Cl [Example 21, 4-(2,5-Dichloro-phenoxy)-N-(4,5-difluoro-2-methylamino-phenyl)-N-methyl-nicotinamide] | 400 nM
11 | O=C(Nc1cccc2c1NCCC2)c1cnccc1Oc1cc(Cl)ccc1Cl [Example 22, 4-(2,5-Dichloro-phenoxy)-N-(1,2,3,4-tetrahydro-quinolin-8-yl)-nicotinamide] | 900 nM
12 | CN(C)c1ncccc1N(C)C(=O)c1cnccc1Oc1cc(Cl)ccc1Cl [Example 23, 4-(2,5-Dichloro-phenoxy)-N-(2-dimethylamino-pyridin-3-yl)-N-methyl-nicotinamide] | 200 nM
13 | CN(C(=O)c1cnccc1Oc1cc(Cl)ccc1Cl)c1cccc2c1NCCC2 [Example 24, 4-(2,5-Dichloro-phenoxy)-N-methyl-N-(1,2,3,4-tetrahydro-quinolin-8-yl)-nicotinamide] | 100 nM
14 | O=C(c1cnccc1Oc1cc(Cl)c(Br)cc1Cl)N1CCN(C2CC2)c2ccccc21 [Example 26, [4-(4-Bromo-2,5-dichloro-phenoxy)-pyridin-3-yl]-(4-cyclopropyl-3,4-dihydro-2H-quinoxalin-1-yl)-methanone] | 4 nM
15 | COC(=O)c1cc(Cl)c(Oc2ccncc2C(=O)N2CCN(C3CC3)c3ccccc32)cc1Cl [Example 27, 2,5-Dichloro-4-[3-(4-cyclopropyl-3,4-dihydro-2H-quinoxaline-1-carbonyl)-pyridin-4-yloxy]-benzoic acid methyl ester] | 4 nM
16 | COC(=O)c1cc(Cl)c(Oc2ccncc2C(=O)N2CCN(C3CC3)c3ccccc32)cc1C(=O)OC [Example 28, 4-Chloro-5-[3-(4-cyclopropyl-3,4-dihydro-2H-quinoxaline-1-carbonyl)-pyridin-4-yloxy]-phthalic acid dimethyl ester] | 4 nM
17 | COC(=O)CNC(=O)c1cc(Cl)c(Oc2ccncc2C(=O)N2CCN(C3CC3)c3ccccc32)cc1Cl [Example 29, {2,5-Dichloro-4-[3-(4-cyclopropyl-3,4-dihydro-2H-quinoxaline-1-carbonyl)-pyridin-4-yloxy]-benzoylamino}-acetic acid methyl ester] | 100 nM
18 | O=C(O)CNC(=O)c1cc(Cl)c(Oc2ccncc2C(=O)N2CCN(C3CC3)c3ccccc32)cc1Cl [Example 30, {2,5-Dichloro-4-[3-(4-cyclopropyl-3,4-dihydro-2H-quinoxaline-1-carbonyl)-pyridin-4-yloxy]-benzoylamino}-acetic acid] | 400 nM
19 | COC(=O)CN(C)C(=O)c1cc(Cl)c(Oc2ccncc2C(=O)N2CCN(C3CC3)c3ccccc32)cc1Cl [Example 31, ({2,5-Dichloro-4-[3-(4-cyclopropyl-3,4-dihydro-2H-quinoxaline-1-carbonyl)-pyridin-4-yloxy]-benzoyl}-methyl-amino)-acetic acid methyl ester] | 100 nM
20 | CN(CC(=O)O)C(=O)c1cc(Cl)c(Oc2ccncc2C(=O)N2CCN(C3CC3)c3ccccc32)cc1Cl [Example 32, ({2,5-Dichloro-4-[3-(4-cyclopropyl-3,4-dihydro-2H-quinoxaline-1-carbonyl)-pyridin-4-yloxy]-benzoyl}-methyl-amino)-acetic acid] | 900 nM
21 | CCOC(=O)CCNC(=O)c1cc(Cl)c(Oc2ccncc2C(=O)N2CCN(C3CC3)c3ccccc32)cc1Cl [Example 33, 3-{2,5-Dichloro-4-[3-(4-cyclopropyl-3,4-dihydro-2H-quinoxaline-1-carbonyl)-pyridin-4-yloxy]-benzoylamino}-propionic acid ethyl ester] | 20 nM
22 | O=C(NCCS(=O)(=O)O)c1cc(Cl)c(Oc2ccncc2C(=O)N2CCN(C3CC3)c3ccccc32)cc1Cl [Example 35, 2-{2,5-Dichloro-4-[3-(4-cyclopropyl-3,4-dihydro-2H-quinoxaline-1-carbonyl)-pyridin-4-yloxy]-benzoylamino}-ethanesulfonic acid] | 100 nM

The remaining lines, values ahead:

Row | EC50 | Compound
23 | 1800 nM | CCOC(=O)C1CC1CN1CCN(C(=O)c2cnccc2Oc2cc(Cl)ccc2Cl)c2ccccc21 (stereo not drawn) [Example 5, 2-{4-[4-(2,5-Dichloro-phenoxy)-pyridine-3-carbonyl]-3,4-dihydro-2H-quinoxalin-1-ylmethyl}-cyclopropanecarboxylic acid ethyl ester]
24 | 300 nM | CS(=O)(=O)N1CCN(C(=O)c2cnccc2Oc2cc(Cl)ccc2Cl)c2ccccc21 [Example 7, [4-(2,5-Dichloro-phenoxy)-pyridin-3-yl]-(4-methanesulfonyl-3,4-dihydro-2H-quinoxalin-1-yl)-methanone]
25 | 50 nM | O=C(c1cnccc1Oc1cc(Cl)ccc1Cl)N1CCN(C2CC2)c2cc(Cl)c(F)cc21 [Example 9, (6-Chloro-4-cyclopropyl-7-fluoro-3,4-dihydro-2H-quinoxalin-1-yl)-[4-(2,5-dichloro-phenoxy)-pyridin-3-yl]-methanone]
26 | 200 nM | Cc1ccccc1N(C)C(=O)c1cnccc1Oc1cc(Cl)ccc1Cl [Example 13, 4-(2,5-Dichloro-phenoxy)-N-methyl-N-o-tolyl-nicotinamide]
27 | 100 nM | COc1ccccc1N(C)C(=O)c1cnccc1Oc1cc(Cl)ccc1Cl [Example 14, 4-(2,5-Dichloro-phenoxy)-N-(2-methoxy-phenyl)-N-methyl-nicotinamide]
28 | 100 nM | COc1ncccc1N(C)C(=O)c1cnccc1Oc1cc(Cl)ccc1Cl [Example 15, 4-(2,5-Dichloro-phenoxy)-N-(2-methoxy-pyridin-3-yl)-N-methyl-nicotinamide]
29 | 40 nM | CN(C)c1ccccc1N(C)C(=O)c1cnccc1Oc1cc(Cl)ccc1Cl [Example 16, 4-(2,5-Dichloro-phenoxy)-N-(2-dimethylamino-phenyl)-N-methyl-nicotinamide]
30 | 1900 nM | CN(C(=O)c1cnccc1Oc1cc(Cl)ccc1Cl)c1ccccc1N1CCCCC1 [Example 17, 4-(2,5-Dichloro-phenoxy)-N-methyl-N-(2-piperidin-1-yl-phenyl)-nicotinamide]
31 | 1400 nM | CN(C(=O)c1cnccc1Oc1cc(Cl)ccc1Cl)c1cc(C(F)(F)F)cc(C(F)(F)F)c1 [Example 18, N-(3,5-Bis-trifluoromethyl-phenyl)-4-(2,5-dichloro-phenoxy)-N-methyl-nicotinamide]
32 | 1700 nM | CN(C(=O)c1cnccc1Oc1cc(Cl)ccc1Cl)c1cc(F)c(Cl)cc1N(C)C1CC1 [Example 25, N-[4-Chloro-2-(cyclopropyl-methyl-amino)-5-fluoro-phenyl]-4-(2,5-dichloro-phenoxy)-N-methyl-nicotinamide]
33 | 300 nM | O=C(O)CCNC(=O)c1cc(Cl)c(Oc2ccncc2C(=O)N2CCN(C3CC3)c3ccccc32)cc1Cl [Example 34, 3-{2,5-Dichloro-4-[3-(4-cyclopropyl-3,4-dihydro-2H-quinoxaline-1-carbonyl)-pyridin-4-yloxy]-benzoylamino}-propionic acid]
